In patent US20250320184A1 (SIRONAX LTD., priority 2022, published 2025):

Each molecule was assayed against T1, SARM1 (50-724) (Homo sapiens, UniProt Q6SZW1) (assay: biochemical).
T1 sequence (Q6SZW1 50-724): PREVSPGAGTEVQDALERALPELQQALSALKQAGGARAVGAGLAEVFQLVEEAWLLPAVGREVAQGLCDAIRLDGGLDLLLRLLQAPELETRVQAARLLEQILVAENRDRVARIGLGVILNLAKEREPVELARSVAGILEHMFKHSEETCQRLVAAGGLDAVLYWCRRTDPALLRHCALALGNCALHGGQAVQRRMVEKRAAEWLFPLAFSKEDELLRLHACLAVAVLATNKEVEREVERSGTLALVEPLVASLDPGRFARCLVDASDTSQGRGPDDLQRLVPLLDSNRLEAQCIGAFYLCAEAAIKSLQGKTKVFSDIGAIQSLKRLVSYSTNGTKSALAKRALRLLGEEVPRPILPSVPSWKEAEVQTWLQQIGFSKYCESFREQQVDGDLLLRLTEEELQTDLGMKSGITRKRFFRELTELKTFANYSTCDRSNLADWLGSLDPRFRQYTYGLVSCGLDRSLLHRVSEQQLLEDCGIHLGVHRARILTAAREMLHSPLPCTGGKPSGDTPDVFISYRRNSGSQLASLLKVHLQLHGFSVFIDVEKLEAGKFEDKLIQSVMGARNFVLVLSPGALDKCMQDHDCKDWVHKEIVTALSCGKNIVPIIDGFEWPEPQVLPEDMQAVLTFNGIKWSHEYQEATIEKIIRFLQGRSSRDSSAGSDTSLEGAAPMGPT
Procedure: An enzymatic assay was performed in a 384-well plate using Dulbecco's phosphate-buffered saline (PBS) as the reaction buffer. […] The reaction was initiated by adding a mixture of 200 μM nicotinamide mononucleotide (NMN) as activator and 100 μM NAD^+ as substrate. After 1 h of incubation at room temperature, the reaction was terminated with 10 times volume of 70% acetonitrile, then centrifuged at 3800 rpm for 10 min.

`CC1(C)C(=O)N(CC(N)=O)c2cc(NS(=O)(=O)c3cccc(Cl)c3Cl)ccc21` [Compound 255, 2-[6-[(2,3-dichlorophenyl)sulfonylamino]-3,3-dimethyl-2-oxo-indolin-1-yl]acetamide] and `CC1(C)C(=O)N(CC(=O)NCCO)c2cc(NS(=O)(=O)c3cccc(Cl)c3Cl)ccc21` [Example 287, 2-(6-((2,3-dichlorophenyl)sulfonamido)-3,3-dimethyl-2-oxoindolin-1-yl)-N-(2-hydroxyethyl)acetamide] cannot be ordered by IC50: less than 100 nM for the first, less than 100 nM for the second.

First: Cc1n[nH]c(=O)c2cc(NC(C)c3c(Cl)ccc(F)c3Cl)ccc12 (racemic) [Example 222, 7-((1-(2,6-dichloro-3-fluorophenyl)ethyl)amino)-4-methylphthalazin-1(2H)-one]
Second: Cc1c(C#N)sc(C(C)Nc2ccc3c(C)n[nH]c(=O)c3c2)c1Cl (racemic) [Compound 350, 4-chloro-3-methyl-5-(1-((1-methyl-4-oxo-3,4-dihydrophthalazin-6-yl)amino)ethyl)thiophene-2-carbonitrile]
The IC50 of the first is lower: less than 100 nM for the first, 100 to 500 nM for the second. The first is the more potent here.

Compared with `CC(Nc1ccc2c(c1)C(=O)NCC2)c1ccc(Cl)c(F)c1` (racemic) [Example 96, 7-((1-(4-chloro-3-fluorophenyl)ethyl)amino)-3,4-dihydroisoquinolin-1(2H)-one], `CCC(Nc1ccc2c(c1)C(=O)NCC2)c1cc(C)cc(F)c1` (racemic) [Example 109, 7-((1-(3-fluoro-5-methylphenyl)propyl)amino)-3,4-dihydroisoquinolin-1(2H)-one] is lower in IC50: greater than 1000 nM for the first, 100 to 500 nM for the second.

`O=c1[nH]ccc2ccc(NS(=O)(=O)c3ccc(F)c(Cl)c3Cl)cc12` [Compound 69, 2,3-dichloro-4-fluoro-N-(1-oxo-1,2-dihydroisoquinolin-7-yl)benzenesulfonamide] and `O=S(=O)(Nc1ccc2cc[nH]c2c1)c1cccc(Cl)c1Cl` [Compound 11, 2,3-dichloro-N-(1H-indol-6-yl)benzenesulfonamide] cannot be ordered by IC50: less than 100 nM for the first, less than 100 nM for the second.

`O=S(=O)(Nc1ccc2csnc2c1)c1cccc(Cl)c1Cl` [Compound 59, N-(benzo[c]isothiazol-6-yl)-2,3-dichlorobenzenesulfonamide] and `O=S(=O)(Nc1ccc2ccccc2c1)c1cccc(Cl)c1Cl` [Compound 44, 2,3-dichloro-N-(naphthalen-2-yl)benzenesulfonamide] fall in the same range of IC50: 100 to 500 nM for the first, 100 to 500 nM for the second.

Compared with `O=c1[nH]cc(Cl)c2ccc(NS(=O)(=O)c3cccc(Cl)c3Cl)cc12` [Compound 91, 2,3-dichloro-N-(4-chloro-1-oxo-1,2-dihydroisoquinolin-7-yl)benzenesulfonamide], `O=c1[nH]cc(Br)c2ccc(NS(=O)(=O)c3cccc(Cl)c3Cl)cc12` [Compound 57, N-(4-bromo-1-oxo-1,2-dihydroisoquinolin-7-yl)-2,3-dichlorobenzenesulfonamide] is higher in IC50: less than 100 nM for the first, 100 to 500 nM for the second.

`Cc1cccc(F)c1S(=O)(=O)Nc1ccc2c(c1)C(=O)NCC2` [Compound 61, 2-fluoro-6-methyl-N-(1-oxo-1,2,3,4-tetrahydroisoquinolin-7-yl)benzenesulfonamide] and `O=C1NCCc2ccc(NS(=O)(=O)c3cccc(F)c3F)cc21` [Compound 54, 2,3-difluoro-N-(1-oxo-1,2,3,4-tetrahydroisoquinolin-7-yl)benzenesulfonamide] cannot be ordered by IC50: greater than 1000 nM for the first, greater than 1000 nM for the second.

Compared with `NC(=O)Cc1ccc(NS(=O)(=O)c2cccc(Cl)c2Cl)cc1` [Compound 31, 2-(4-((2,3-dichlorophenyl)sulfonamido)phenyl)acetamide], `CC1CNC(=O)c2cc(NS(=O)(=O)c3cccc(Cl)c3Cl)ccc21` (stereo not drawn) [Compound 189] is lower in IC50: 100 to 500 nM for the first, less than 100 nM for the second. The second is the more potent here.

First: Cc1c(F)cccc1S(=O)(=O)Nc1ccc2scnc2c1 [Compound 32, N-(benzo[d]thiazol-5-yl)-3-fluoro-2-methylbenzenesulfonamide]
Second: Cc1c(F)cccc1S(=O)(=O)Nc1ccc2cn[nH]c2c1 [Compound 25, 3-fluoro-N-(1H-indazol-6-yl)-2-methylbenzenesulfonamide]
The IC50 of the first is lower: 100 to 500 nM for the first, 500 to 1000 nM for the second.

`CC(Nc1ccc2cc[nH]c(=O)c2c1)c1sc(Cl)nc1Cl` (racemic) [Example 130, 7-((1-(2,4-dichlorothiazol-5-yl)ethyl)amino)isoquinolin-1(2H)-one] and `CC(Nc1ccc2cc[nH]c(=O)c2c1)c1cccc(Cl)c1` (racemic) [Example 108, 7-((1-(3-chlorophenyl)ethyl)amino)isoquinolin-1(2H)-one] fall in the same range of IC50: 100 to 500 nM for the first, 100 to 500 nM for the second.

`CC(Nc1cc(F)c2ncn(C3CC(O)C3)c(=O)c2c1)c1nc(Cl)c(Cl)s1` (stereo not drawn) [Compound 340, 6-((1-(4,5-dichlorothiazol-2-yl)ethyl)amino)-8-fluoro-3-(3-ydroxycyclobutyl)quinazolin-4(3H)-one] and `CC(Nc1cc(F)c2c(c1)C(=O)NC2(C)C)c1nc(Cl)c(Cl)s1` (racemic) [Compound 318, 6-((1-(4,5-dichlorothiazol-2-yl)ethyl)amino)-4-fluoro-3,3-dimethylisoindolin-1-one] cannot be ordered by IC50: less than 100 nM for the first, less than 100 nM for the second.

Compared with `Cc1c(F)cccc1S(=O)(=O)Nc1cccc(-c2cscn2)c1` [Example 159, 3-fluoro-2-methyl-N-(3-(thiazol-4-yl)phenyl)benzenesulfonamide], `Cc1c(F)cccc1S(=O)(=O)Nc1cccc(-c2ccc[nH]c2=O)c1` [Example 162, 3-fluoro-2-methyl-N-[3-(2-oxo-1,2-dihydropyridin-3-yl)phenyl]benzenesulfonamide] is higher in IC50: 500 to 1000 nM for the first, greater than 1000 nM for the second.

`CC[C@@H](C(N)=O)c1ccc(N[C@H](C)c2nc(Cl)c(Cl)s2)cc1` (single isomer, unassigned) [Compound 302B] and `Cc1nn(CC(N)=O)c(=O)c2cc(NC(C)c3nc(Cl)c(Cl)s3)ccc12` (single isomer, unassigned) [Compound 358] cannot be ordered by IC50: greater than 1000 nM for the first, greater than 1000 nM for the second.

`O=C1NCCc2ccc(NS(=O)(=O)c3ccc(F)c(F)c3F)cc21` [Compound 36, 2,3,4-trifluoro-N-(1-oxo-1,2,3,4-tetrahydroisoquinolin-7-yl)benzenesulfonamide] and `O=C1NCCc2ccc(NS(=O)(=O)c3cccc(F)c3Cl)cc21` [Compound 53, 2-chloro-3-fluoro-N-(1-oxo-1,2,3,4-tetrahydroisoquinolin-7-yl)benzenesulfonamide] fall in the same range of IC50: 100 to 500 nM for the first, 100 to 500 nM for the second.

`O=C1NCCc2ccc(NS(=O)(=O)N3C4CCCC3CC4)cc21` [Example 166, N-(1-oxo-1,2,3,4-tetrahydroisoquinolin-7-yl)-8-azabicyclo[3.2.1]octane-8-sulfonamide] and `O=C1NCCc2ccc(NS(=O)(=O)c3cc(F)cc(Br)c3)cc21` [Compound 12, 3-bromo-5-fluoro-N-(1-oxo-1,2,3,4-tetrahydroisoquinolin-7-yl)benzenesulfonamide] cannot be ordered by IC50: greater than 1000 nM for the first, greater than 1000 nM for the second.

`CC1(C)CN(C(=O)c2ccccn2)c2cc(NS(=O)(=O)c3cccc(Cl)c3Cl)ccc21` [Compound 281, 2,3-dichloro-N-(3,3-dimethyl-1-picolinoylindolin-6-yl)benzenesulfonamide] and `O=S(=O)(Nc1ccc2c(c1)C(O)CCC2)c1cccc(Cl)c1Cl` (racemic) [Compound 56, 2,3-dichloro-N-(8-hydroxy-5,6,7,8-tetrahydronaphthalen-2-yl)benzenesulfonamide] cannot be ordered by IC50: less than 100 nM for the first, less than 100 nM for the second.

`CC(Nc1ccc2c(C(F)(F)F)n(CC(N)=O)nc2c1)c1nc(Cl)c(Cl)s1` (single isomer, unassigned) [Compound 367] and `Cc1c2ccc(NC(C)c3snc(Cl)c3Cl)cc2nn1CC(N)=O` (racemic) [Compound 341, 2-(6-((1-(3,4-dichloroisothiazol-5-yl)ethyl)amino)-3-methyl-2H-indazol-2-yl)acetamide] cannot be ordered by IC50: less than 100 nM for the first, less than 100 nM for the second.

`CC1(C)C(=O)Nc2cc(NC(CCO)c3nc(Cl)c(Cl)s3)ccc21` (racemic) [Example 292, 6-((1-(4,5-dichlorothiazol-2-yl)-3-hydroxypropyl)amino)-3,3-dimethylindolin-2-one] and `CC(Nc1ccc2cn[nH]c2c1)c1nc(Cl)c(Cl)s1` (racemic) [Compound 249, N-(1-(4,5-dichlorothiazol-2-yl)ethyl)-1H-indazol-6-amine] cannot be ordered by IC50: less than 100 nM for the first, less than 100 nM for the second.

First: Cc1c(F)cccc1S(=O)(=O)Nc1ccc2c(c1)C(=O)N(C)CC2 [Compound 21, 3-fluoro-2-methyl-N-(2-methyl-1-oxo-1,2,3,4-tetrahydroisoquinolin-7-yl)benzenesulfonamide]
Second: Cc1c(F)cccc1S(=O)(=O)Nc1ccc2c(c1)CN(C(=O)OC(C)(C)C)CC2 [Compound 4]
The IC50 of the first is lower: 100 to 500 nM for the first, greater than 1000 nM for the second.

`Cc1c2ccc(NC(C)(C)c3nc(Cl)c(Cl)s3)cc2nn1CC(N)=O` [Example 360, 2-(6-((2-(4,5-dichlorothiazol-2-yl)propan-2-yl)amino)-3-methyl-2H-indazol-2-yl)acetamide] and `CCC(Nc1ccc2cc[nH]c(=O)c2c1)c1cccc(Cl)c1Cl` (racemic) [Example 143, 7-((1-(2,3-dichlorophenyl)propyl)amino)isoquinolin-1(2H)-one] cannot be ordered by IC50: less than 100 nM for the first, less than 100 nM for the second.

Compared with `O=C1NCCc2ccc(NS(=O)(=O)c3ccccc3Cl)cc21` [Example 6A, 2-chloro-N-(1-oxo-1,2,3,4-tetrahydroisoquinolin-7-yl)benzenesulfonamide], `CCC(Nc1ccc2c(c1)C(=O)NCN2)c1cccc(Cl)c1Cl` (racemic) [Example 147, 6-((1-(2,3-dichlorophenyl)propyl)amino)-2,3-dihydroquinazolin-4(1H)-one] is lower in IC50: greater than 1000 nM for the first, 100 to 500 nM for the second.
